Data from the NIST ThermoML archive (doi:10.1016/j.tca.2016.03.009).
± gives the expanded uncertainty stated by the source.

Experiments:
[1] = Molar enthalpy of transition or fusion; conditions: DSC
[2] = DSC

CCCCOc1cc2c3cc(OCCCC)c(OCCCC)cc3c3cc(OCCCC)c(OCCCC)cc3c2cc1OCCCC [2,3,6,7,10,11-hexabutoxytriphenylene]
Molar enthalpy of transition or fusion ([1]; Crystal): 5.4 ± 0.174 kcal/mol
Molar enthalpy of transition or fusion ([1]; Liquid crystal of unknown type): 4.47 ± 0.141 kcal/mol
Triple point temperature ([2]; Crystal): 360.35 ± 1 K
Triple point temperature ([2]; Liquid crystal of unknown type): 417.95 ± 1 K
